Measured values reported in PMC9050674, “Structure-based inhibitor design for reshaping bacterial morphology” (Communications Biology, 2022).
Where “and” joins values, the source holds several entries; their conditions need not be identical. Equal entries are not always repeated.

Key:
Pgp3 WT = Pgp3 WT (Campylobacter jejuni, UniProt Q0P921); test: Isothermal-titration calorimetry (ITC) with Pgp3 WT; type: binding, C. jejuni
Method: (§1) The gene encoding the amino-acid sequence of Glu21–Gln273 of Pgp3 from C. jejuni (strain ATCC 33560) was cloned into the expression vector pET-21a (Novagen) producing the recombinant wild-type Pgp3 protein with the C-terminal His6-tag ([…]). The protein expression and purification were conducted according to previously described methods with exception. The HiTrap chelating HP (GE Healthcare) column was washed with the lysis buffer containing 60 mM imidazole and the protein was eluted with a linear gradient from 100 to 500 mM imidazole. The protein was further purified by gel filtration on a HiLoad 16/60 Superdex 200 prep-grade column (GE Healthcare), which was previously equilibrated with 20 mM Tris-HCl pH 8.0 and 200 mM NaCl. The fractions containing the Pgp3 protein were pooled and concentrated to 15 mg mL^−1 for crystallization. The variants of Pgp3 (S169A, R195A, H216A, and H247A) were generated by site-directed mutagenesis using primer sets in Supplementary Table 1 and were purified as described for the WT Pgp3.
(§2) Using a micro-syringe, 2.5 μL of each inhibitor (2.25 mM) was added at intervals of 200 s to the Pgp3 solution in the cell with gentle stirring (125 rpm). The same ITC condition was applied to evaluate the KD values of BMK-S101 for each Pgp3 variant. All data were fitted to the single-binding-site model. Fitted curves were generated using GraphPad Prism 7. Data are mean ± SEM from triplicate experiments and the ITC thermograms are representative of triplicate experiments.

C. jejuni ATCC 33560 WT = test: Cell morphology change monitored by TEM; type: cell-based, Campylobacter jejuni; details: 37 °C, 24 h; for minimum concentration causing morphological changes (helical to curved-rod): KL-L9P used for improved permeability
From the text: Next, we investigated whether our inhibitors could transform C. jejuni from the helical- to curved-rod morphology on exposure to the inhibitors (Fig. 5). […] To investigate the effect of inhibitors on the morphology of C. jejuni cells, we exposed the cells to the inhibitors and checked whether the morphology could be altered.
Cell-morphology change of C. jejuni upon inhibitor treatment was monitored, as described previously with modifications. Briefly, overnight cultures of C. jejuni were harvested from MH agar plates and suspended in MH broth to approximately 1 × 10^6 colony-forming unit (CFU)/mL. A total of 500 μL of the diluted bacterial culture was added into each well of a 24-well plate with 5 μL of two-fold serial dilutions of inhibitor. For the control strain with no inhibitor, the same volume of dilution buffer (20 mM Tris-HCl pH 8.0 and 200 mM NaCl) was used. The plate was incubated under a micro-aerobic condition at 37 °C for 24 h in the static condition. After incubation, 10 μL of the bacterial cultures was placed on formvar/carbon-coated copper grids (200 mesh) and negatively stained with 2% uranyl acetate for 2 s.

C. jejuni (ATCC 33560) = test: Drug accumulation assay (LC-MS); details: for µM (concentration in LC-MS sample): single replicates (First, Second, Third), total volume 200 (r6-r19) or 100 (r23-r30); for µM (concentration in LC-MS sample) / nmol/1011 CFUs / Total nmol: source data Fig. 5b; for nmol/1011 CFUs / Total nmol: single replicates; for Total nmol: total volume 200 or 100
Method: The accumulation assay was adapted from two different methods[42],[43]. […] The culture was grown overnight at 42 °C under the micro-aerobic condition. The cells were harvested at 6000 g for 15 min and washed with 1 × PBS, followed by resuspension in pre-warmed 1 × PBS to ~10^10 CFU/mL. The cell suspension (1.2 mL) was dispensed into a 24-well plate. Each compound to be examined was added into each well (final concentration = 100 μM). […] After incubation with shaking at 37 °C for 20 min, OD600 of each sample was measured, and the cells were harvested at 6000 g for 10 min at 4 °C. The pellets were resuspended in 250 μL of water, followed by three cycles of Freeze-Thaw with a dry ice/ethanol bath and a 37 °C-heating block in order to extract the compounds from C. jejuni. The cells were pelleted at 13,000 g for 5 min at room temperature. The supernatants (220 μL) were transferred to new tubes. The pellets were resuspended in 100 μL of methanol with vigorous vortexing for 1 min, followed by pelleting as before. The supernatants (100 μL) were combined with the solutions previously collected. The residual cell debris were removed at 20,000 g for 15 min at room temperature. The supernatants (300 μL) were dried with Genevac™ miVac Centrifugal Concentrator at room temperature for 5 h. Finally, the samples were resuspended with appropriate solvents and analyzed by LC-MS.
The suspension was centrifuged and the supernatant was analyzed by LC-MS. LC-MS systems consists of a Bruker impact II ultra-high resolution Qq-time-of-flight mass spectrometer using Hystar 5.0 SR1 software with a Waters Acquity UPLC H-Class system equipped with a quaternary solvent manager, a sample manager-FTN, and a photodiode array detector. The Bruker electrospray ionization source was operated in the positive ion mode, except for BMK-S301 (in the negative ion mode). […] A four-step 10-min LC gradient was as follows: 3 min at 98:2; 3 min to 85:15; 0.1 min to 98:2; 3.9 min at 98:2 for BMK-S101, -S203, and -S301. The ratio of the mobile phases (A = 0.1% formic acid in water, B = 0.1% formic acid in ACN) is given as A:B in LC gradients. […] The quantification was done by integrating the peak areas from extracted-ion chromatograms of corresponding m/z values of each compound.

Pgp3 = Pgp3 (Campylobacter jejuni, UniProt Q0P921); test: biochemical; set-up: species or system C. jejuni
Method: Because DABCYL/FITC is a typical FRET quencher–fluorophore pair, an increase in fluorescent signals can be directly detected when it is processed by Pgp3 (Tang et al., 2013). The kinetic parameters (kcat = 0.0209 ± 0.0006 s^−1 and KM = 6.6 ± 0.7 µM) for the substrate were obtained by fitting the data to the Michaelis-Menten equation (Supplementary Fig. 8a).
The enzymatic assay for Pgp3 activity was determined using a fluorescein isothiocyanate (FITC) and 4′-([4′-(Dimethylamino)phenyl]-azo)-benzoic acid (DABCYL) pair for FRET. […] The excitation and emission spectra were set at 495 nm and 525 nm, respectively. Pgp3 (0.1 μM) in 20 mM HEPES pH 7.5, 200 mM NaCl, and 0.4 μM of zinc was used in this assay. The reaction was initiated by adding 3 μL of 0.015–2 mM substrate (final 1.56–200 μM) in the total volume of 30 μL of the reaction mixture. Initial velocities were calculated using slopes of fluorescence signal intensity in 3 min after the initiation of the reaction. In order to elucidate the inhibition mechanism of BMK-S301, initial velocities with various concentrations of substrates were measured in the presence of 40 μM BMK-S301. […] The same method was used for the determination of the IC50 values for inhibitors. Inhibitors in each concentration were pre-incubated with 0.1 μM of Pgp3 for 1 h on ice, and initial velocities were determined for 0.1, 10, 50, 100, 200, 500, and 1000 μM of each inhibitor in reaction with 10 μM of substrate. The IC50 values were calculated using GraphPad Prism 7.

Pgp3 S169A = target: T1, Pgp3 S169A (Campylobacter jejuni, UniProt Q0P921, S169A); test: ITC with Pgp3 S169A variant; type: binding, C. jejuni
T1 sequence (Q0P921 21-273 S169A): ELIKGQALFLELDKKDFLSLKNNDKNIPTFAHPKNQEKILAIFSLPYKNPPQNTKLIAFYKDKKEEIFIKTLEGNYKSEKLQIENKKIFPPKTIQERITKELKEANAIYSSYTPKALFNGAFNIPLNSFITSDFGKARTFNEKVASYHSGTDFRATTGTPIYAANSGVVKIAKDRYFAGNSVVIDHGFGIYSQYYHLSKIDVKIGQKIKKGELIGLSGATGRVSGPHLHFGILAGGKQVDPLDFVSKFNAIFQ
Method: (§3) To evaluate the contributions of the three residues (Ser169, Arg195, and His216) to binding of BMK-S101, they were substituted to Ala, and the effect of each mutation was evaluated using ITC (Fig. 2d and Supplementary Fig. 1).
as §1, with “Pgp3. […]” for “Pgp3.”

Pgp3 R195A = target: T2, Pgp3 R195A (Campylobacter jejuni, UniProt Q0P921, R195A); test: ITC with Pgp3 R195A variant; type: binding, C. jejuni
T2 sequence (Q0P921 21-273 R195A): T1 sequence (Q0P921 21-273 S169A)
Method: as §3
as §1, with “Pgp3. […]” for “Pgp3.”

Pgp3 H216A = target: T3, Pgp3 H216A (Campylobacter jejuni, UniProt Q0P921, H216A); test: ITC with Pgp3 H216A variant; type: binding, C. jejuni
T3 sequence (Q0P921 21-273 H216A): T1 sequence (Q0P921 21-273 S169A)
Method: as §3
as §1, with “Pgp3. […]” for “Pgp3.”

Pgp3 H247A variant = test: ITC with inactive Pgp3 H247A variant; type: binding, C. jejuni; details: ITC at 298 K, Pgp3 H247A variant (used to prevent turnover of substrate)
Method: as §1
as §2, with “Data are mean ± SEM from triplicate experiments and the ITC thermograms are representative of triplicate experiments.” left out

[1] = target: Pgp3 H247A variant (peptidoglycan peptidase 3, Campylobacter jejuni, Glu21-Gln273) (C. jejuni (strain ATCC 33560)); test: ITC
[2] = substrate turnover by Pgp3, Michaelis-Menten fit

## CC(=O)N[C@@H](CCN(CC(=O)O)CC1CCCC1)C(=O)N[C@H](C)C(=O)NO [BMK-S203]
Pgp3 WT
  Kd: 1.8 ± 0.4 µM
C. jejuni ATCC 33560 WT
  minimum concentration causing morphological changes (helical to curved-rod): 25~50 μM
C. jejuni (ATCC 33560); 100 μM compound, 37 °C, 20 min, LC-MS, mean
  intracellular concentration (accumulation): 0.3 ± 0.1 nmole/10^11 CFU
C. jejuni (ATCC 33560)
  µM (concentration in LC-MS sample): 0.0294 µM and 0.0222 µM and 0.0293 µM
  nmol/1011 CFUs: 0.333 nmol/1011 CFUs and 0.240 nmol/1011 CFUs and 0.327 nmol/1011 CFUs
  Total nmol: 0.00294 nmol and 0.00222 nmol and 0.00293 nmol

## CC(=O)N[C@@H](CCNCC(=O)O)C(=O)N[C@H](C)C(=O)NO [BMK-S202]
Pgp3 WT
  Kd: 6.6 ± 0.3 µM
C. jejuni ATCC 33560 WT
  minimum concentration causing morphological changes (helical to curved-rod): 25~50 μM

## FITC-L-Ala^1-D-Glu^2-mDAP^3-D-Ala^4-L-Lys^5-DABCYL [FRET substrate, reference compound]
Pgp3; [2]
  Km: 6.6 ± 0.7 µM
  kcat: 0.0209 ± 0.0006 s⁻¹

## NS(=O)(=O)c1ccc(-c2ccc(CC(=O)NO)cc2)cc1 [BMK-S303]
Pgp3 WT
  Kd: 1.4 ± 0.4 µM
Pgp3
  IC50: 22.3 ± 1.5 µM
C. jejuni ATCC 33560 WT
  minimum concentration causing morphological changes (helical to curved-rod): 400 μM

## CC(=O)N[C@@H](CCC[C@@H](NC(C)=O)C(=O)O)C(=O)N[C@H](C)C(=O)NO [BMK-S101]
Pgp3 WT
  Kd: 2.3 ± 0.8 µM
Pgp3 S169A
  Kd: 28.3 ± 5.8 µM
Pgp3 R195A
  Kd: 17.8 ± 0.8 µM
Pgp3 H216A
  Kd: 10.4 ± 2.6 µM
C. jejuni ATCC 33560 WT
  concentrations without any detectable changes in the cell shape: ≤ 156 µM
  minimum concentration causing morphological changes (helical to curved-rod): > 313 μM

## CC(=O)N[C@@H](CCN(CC(=O)O)Cc1ccccc1)C(=O)N[C@H](C)C(=O)NO [BMK-S201]
Pgp3 WT
  Kd: 1.3 ± 0.1 µM
C. jejuni (ATCC 33560)
  µM (concentration in LC-MS sample): 0.024 µM and 0.040 µM and 0.056 µM
  nmol/1011 CFUs: 0.60 nmol/1011 CFUs and 0.97 nmol/1011 CFUs and 1.37 nmol/1011 CFUs
  Total nmol: 0.0048 nmol and 0.0079 nmol and 0.0112 nmol

## Ac-L-Ala^1-γ-D-Glu^2-mDAP^3-D-Ala^4−D-Ala^5 [pentapeptide]
Pgp3 H247A variant
  Kd: 6.8 ± 0.3 µM

## NS(=O)(=O)c1ccc(CC(=O)NCC(=O)NO)cc1 [BMK-S302]
Pgp3 WT
  Kd: 9.9 ± 1.5 µM
Pgp3
  IC50: 244.6 ± 1.4 µM
C. jejuni ATCC 33560 WT
  minimum concentration causing morphological changes (helical to curved-rod): 100 μM

## pentapeptide (Ac-L-Ala1-γ-D-Glu2-mDAP3-D-Ala4-D-Ala5), peptidoglycan stem peptide
[1]
  Kd: 6.8 µM
